Values quoted from earlier work in patent publication US9827281B2, “Medication dispensing system” (priority 2015, dated 2017).

How the values were obtained:
[1] = tested on: nontumorigenic mammary cells
[2] = tested on: estrogen receptor-positive and estrogen receptor-negative breast cancer cell lines; settings: inducing apoptosis in a concentration-dependent manner
CB1 receptor = CB1 receptor (Homo sapiens, UniProt P21554)
[3] = not given; remark: listed apart in the source
[4] = molecular target: T1, androgen receptor in the prostate gland (Homo sapiens, UniProt P10275)
T1 construct: host or cells: prostate gland
T1 sequence (P10275 1-920): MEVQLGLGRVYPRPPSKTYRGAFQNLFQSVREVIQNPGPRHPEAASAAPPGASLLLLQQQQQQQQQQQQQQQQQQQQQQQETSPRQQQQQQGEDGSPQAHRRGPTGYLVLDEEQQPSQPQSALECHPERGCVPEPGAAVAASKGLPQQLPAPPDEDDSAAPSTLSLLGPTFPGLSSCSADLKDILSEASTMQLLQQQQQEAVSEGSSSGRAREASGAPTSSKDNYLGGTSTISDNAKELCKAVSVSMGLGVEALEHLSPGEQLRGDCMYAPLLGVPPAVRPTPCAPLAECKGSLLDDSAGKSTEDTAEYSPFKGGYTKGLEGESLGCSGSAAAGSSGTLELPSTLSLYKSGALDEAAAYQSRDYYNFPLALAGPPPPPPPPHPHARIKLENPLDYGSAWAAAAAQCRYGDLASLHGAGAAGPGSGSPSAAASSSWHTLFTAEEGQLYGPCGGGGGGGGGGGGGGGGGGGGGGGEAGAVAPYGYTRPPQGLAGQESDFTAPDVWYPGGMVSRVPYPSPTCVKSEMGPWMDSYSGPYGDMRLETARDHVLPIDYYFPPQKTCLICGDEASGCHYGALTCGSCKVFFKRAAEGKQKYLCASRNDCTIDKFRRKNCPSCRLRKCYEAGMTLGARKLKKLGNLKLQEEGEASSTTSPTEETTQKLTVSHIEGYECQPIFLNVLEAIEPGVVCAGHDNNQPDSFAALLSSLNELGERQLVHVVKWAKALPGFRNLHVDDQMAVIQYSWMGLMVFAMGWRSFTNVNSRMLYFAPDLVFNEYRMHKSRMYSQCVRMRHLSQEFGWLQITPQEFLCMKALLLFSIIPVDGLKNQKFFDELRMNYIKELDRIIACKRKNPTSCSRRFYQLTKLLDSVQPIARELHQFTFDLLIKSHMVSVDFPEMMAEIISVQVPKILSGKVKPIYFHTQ

Chain of CB1 receptor (P21554 whole entry): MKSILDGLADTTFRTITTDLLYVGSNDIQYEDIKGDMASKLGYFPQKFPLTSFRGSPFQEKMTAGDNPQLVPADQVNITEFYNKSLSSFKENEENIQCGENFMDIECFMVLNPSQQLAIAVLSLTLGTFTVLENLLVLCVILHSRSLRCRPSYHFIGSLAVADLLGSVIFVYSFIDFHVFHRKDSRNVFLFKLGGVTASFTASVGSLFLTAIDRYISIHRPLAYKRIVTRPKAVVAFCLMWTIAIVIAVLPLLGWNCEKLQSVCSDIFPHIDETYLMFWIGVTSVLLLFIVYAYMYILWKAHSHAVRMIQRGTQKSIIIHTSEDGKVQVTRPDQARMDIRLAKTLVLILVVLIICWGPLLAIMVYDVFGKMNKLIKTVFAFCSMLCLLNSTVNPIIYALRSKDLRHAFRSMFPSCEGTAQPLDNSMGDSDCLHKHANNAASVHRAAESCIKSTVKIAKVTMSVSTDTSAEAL

vitamin E
reduction in breast cancer incidence (pre-menopausal women with a family history of breast cancer, highest quantity of vitamin E consumed): 43% | risk reduction of breast cancer (women without a family history of breast cancer): 16%

C=C(C)[C@@H]1CCC(C)=C[C@H]1c1c(O)cc(CCCCC)cc1O [CBD, Cannabidiol]
effect on nontumorigenic mammary cells [1]: little effect | survival of breast cancer cell lines [2]: inhibited the survival | affinity to cannabinoid receptors (cannabinoid receptors): low affinity

CCCc1cc(O)c2c(c1)OC(C)(C)[C@@H]1CCC(C)=C[C@@H]21 [THCV, Tetrahydrocannabivarin]
CB1 receptor mode of action (CB1 receptor): antagonist

CCCCCc1cc(O)c2c(c1)OC(C)(C)[C@@H]1CCC(C)=C[C@@H]21 [THC, Tetrahydrocannabinol]
pain sensitivity ([3]; cold-pressor test after administration): decreased pain sensitivity | time after administration at which pain reduction effects were felt (average) ([3]; cold-pressor test, dronabinol oral capsules 10 mg or 20 mg): 180 min | duration of effects ([3]; compared with smoked marijuana): lasted longer than smoked marijuana | apoptosis (prostate cell line, PC-3): causes apoptosis | specific binding of dihydroxytestosterone to the androgen receptor [4]: inhibits specific binding
